Source: patent publication US11993561B2, “Expectorant compound, preparation method thereof and use thereof” (priority 2019, dated 2024)
Counter-ions that a name gives are not always drawn.

Legend:
Type in all cases: in vivo
mice = test: Expectorant test in mice using a phenol red method; settings: for Tracheal phenol red excretion: n=10, phenol red i.p. 1 h after dosing, sacrifice 0.5 h later; for Expectorant effect (secretion of phenol red in tracheal segment), result in words: comparison between groups
Experimental: In Vivo Pharmacodynamic Test—Expectorant Test in Mice Using a Phenol Red Method
In this example, the in vivo efficacy of the compounds I1, I4, I13 of the present disclosure and known compounds was tested.
Mice in the positive control group were give medicinal ammonium chloride and ambroxol hydrochloride orally, mice in the normal control group were given normal saline of the same amount, and mice the other groups were given corresponding drugs by gavage. The mice were administered by gavage once in the morning and afternoon (excluding ammonium chloride) 2 days before the experiment. After 1 hour of intragastric administration on the morning of the experiment, the mice were intraperitoneally injected with 0.5 ml of phenol red, and the mice were sacrificed 0.5 hours later. The tissue surrounding the organs was peeled off, and a section of the trachea from the thyroid cartilage to the branch of the trachea was cut off and placed in a test tube containing 2 ml of normal saline. The tube was shaken for 30 minutes, the trachea was discarded, and 0.2 ml of sodium hydroxide (1 mol/L) was added to each sample solution. The OD value was measured using a UV-visible spectrophotometer at a wavelength of 546 nm, and the absorbance values were converted into the phenol red content according to the phenol red standard curve.
The data was processed by PEMS medical statistical software.

[1] = Acute toxicity test in mice administered intravenously; settings: male, ICR, mouse, in vivo, iv
Experimental: (§1) Acute toxicity test of the compound of the present disclosure to mice administered intravenously
(§2) To test the acute toxicity of compounds of the present disclosure and comparative compounds, the following experiments were performed.
(§3) Compounds of the present disclosure were dissolved in water and administered to 5 ICR mice (mice of 5-week old, male, weighing 20 g±2 g). Intravenous administration was performed to determine the median lethal dose (LD50, mg/kg). Ambroxol hydrochloride was used as a control.

ICR mice = test: as above; settings: ICR mice, intravenous
Experimental: as §1, §2, §3

[2] = gavage, dose 2.0 ml/kg (high dose)
[3] = gavage, dose 0.5 ml/kg (low dose)

Compound | Tracheal phenol red excretion (mice; [2]) | LD50 [1] [mg/kg] | Expectorant effect (secretion of phenol red in tracheal segment), result in words (mice) | Tracheal phenol red excretion (mice; oral, dose 1.0 ml/kg) | LD50 compared with ambroxol hydrochloride, in words (ICR mice) | Tracheal phenol red excretion (mice; [3]) | Dose-effect relationship of expectorant effect (mice; 0.5 vs 2.0 ml/kg)
CC(=O)N[C@@H](CS)C(=O)O [Acetylcysteine, acetylcysteine, reference compound] | 1.532 ± 0.247 ΔΔ** mg/L | – | – | – | – | – | –
Nc1c(Br)cc(Br)cc1CN[C@H]1CC[C@H](O)CC1 [Ambroxol, ambroxol hydrochloride, reference compound] | 1.418 ± 0.352 ΔΔ** mg/L | 268 | best effect | – | – | – | –
Cl.N [Ammonium chloride, ammonium chloride, reference compound] | – | – | – | 0.875 ± 0.208 ΔΔ** mg/L | – | – | –
Cl.Nc1c(Br)cc(Br)cc1CN[C@H]1CC[C@H](S)CC1 [I1, trans-4-[(2-amino-3,5-dibromo-benzyl)amino]-cyclohexanethiol hydrochloride] | 1.610 ± 0.284 ΔΔ** mg/L | 453 | best effect | – | much higher | 1.225 ± 0.337 ΔΔ** mg/L | –
CN(Cc1cc(Br)cc(Br)c1N)[C@H]1CC[C@H](S)CC1.Cl [I4, trans-4-[(2-amino-3,5-dibromo-benzyl)-methyl-amino]-cyclohexanethiol hydrochloride] | 1.273 ± 0.275 ΔΔ** mg/L | 523 | – | – | much higher | 1.083 ± 0.312 ΔΔ** mg/L | –
Nc1c(Br)cc(Br)cc1CN[C@H]1CC[C@H](SCCCO)CC1 [I13, trans 3-[4-(2-amino-3,5-dibromo-benzylamino)-cyclohexylsulfanyl]-propan-1-ol] | 1.826 ± 0.334 ΔΔ** mg/L | 507 | strongest effect | – | much higher | 1.452 ± 0.351 ΔΔ** mg/L | relatively obvious dose-effect relationship
